We go through two compounds from article PMC5701137, “Discovery of novel choline acetyltransferase inhibitors using structure-based virtual screening” (Scientific Reports, 2017).

One series concerns the target T1, human rChAT (Homo sapiens, UniProt P28329).
T1 construct: made in house; host or cells: E. coli BL21 Rosetta2
T1 sequence (P28329 1-630 isoform P28329-3): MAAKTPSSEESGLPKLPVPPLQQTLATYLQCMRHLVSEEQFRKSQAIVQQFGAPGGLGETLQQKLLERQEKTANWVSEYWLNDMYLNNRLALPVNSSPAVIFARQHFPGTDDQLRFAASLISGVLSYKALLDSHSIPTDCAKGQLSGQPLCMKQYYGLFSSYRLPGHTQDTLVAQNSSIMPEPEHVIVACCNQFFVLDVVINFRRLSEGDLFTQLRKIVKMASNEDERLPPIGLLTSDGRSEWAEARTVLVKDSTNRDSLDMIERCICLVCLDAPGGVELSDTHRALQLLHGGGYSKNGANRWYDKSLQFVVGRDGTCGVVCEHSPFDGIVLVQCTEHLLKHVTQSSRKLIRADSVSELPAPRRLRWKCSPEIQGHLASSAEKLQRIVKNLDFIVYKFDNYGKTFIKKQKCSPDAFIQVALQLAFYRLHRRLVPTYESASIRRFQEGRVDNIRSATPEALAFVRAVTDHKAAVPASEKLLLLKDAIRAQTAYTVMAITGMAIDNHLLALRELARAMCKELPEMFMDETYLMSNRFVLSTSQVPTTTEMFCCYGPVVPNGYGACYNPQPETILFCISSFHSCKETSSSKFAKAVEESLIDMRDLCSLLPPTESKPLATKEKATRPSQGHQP
Description: In vitro ChAT activity inhibition fluorometric assay and kinetic studies. The note with it: mean ± SEM of two experiments. It counts as biochemical.

A further series concerns the target T2, plasma BuChE (Homo sapiens, UniProt P06276).
T2 construct: 1:450 diluted solution of a pooled human plasma; from tissue; host or cells: pooled human plasma
Nature of the series: Modified Ellman's colorimetric assay for BuChE (pooled human plasma) and kinetic studies. It counts as biochemical. The note with it: 200 µM compound, compared to control, mean of three experiments in triplicate; for BuChE % IR (inhibition rate): 200 µM; for inhibition at 200 µM: read-out: BuChE % IR (inhibition rate). The text has this:
(§1) A modified version of Ellman’s colorimetric assay[16],[17] was adapted to a high throughput assay for the enzymatic activity of BuChE and AChE. The reagent, butyrylthiocholine iodide (BTC), acetylthiocholine iodide (ATC), 5,5′-dithiobis (2-nitrobenzoic acid) (DTNB) were purchased from Sigma-Aldrich (St. Louis, MO, USA). The modified assay details are as previously described[34],[35]. The main modification concerned with the high throughput adaptation of the assay for use in 384-well plates. Briefly, 25 μL/well of a 1:450 diluted solution of a pooled human plasma and 1:768 diluted (3.5 ng/ml final concentration) purified recombinant human AChE protein (Sigma, Cat no. C1682) was used for measurement of BuChE and AChE activity, respectively. In the initial in vitro screening step, the wells were pre-incubated with 25 μL/wells of different Asinex compounds for 10–30 minutes at room temperature. The concentration of the compounds working solution was 3X to give a final concentration of 200 μM in a final volume of 75 μL in each well. The stock concentration of the compounds were prepared in 100% DMSO. The stock concentration was chosen usually at 10 mM, allowing the final DMSO concentration in the wells to be less than 4%. Finally, 25 μL of a cocktail mix prepared in Na/K phosphate buffer, containing DTNB (final concentration 0.4 mM) and BTC, (final concentration 1 mM) or ATC (final concentration 0.5 mM) was added to each well and the changes in absorbance was monitored at 412 nm wavelength for 15–20 minutes with one-minute interval, using a microplate spectrophotometer reader (Infinite M1000, Tecan). The rate of the enzyme activity was determined from the linear part of the kinetic reaction curves as ∆OD/time.
(§2) For kinetic studies, a similar protocol as inhibition assay was followed; a dilution series of five different concentrations ranging from 10^−6 to 10^−9 M were prepared for each selected Asinex compounds. For ChAT, the A-CoA was kept constant at 10 μM (final) but the concentration of choline chloride varied between 320–10 μM. For BuChE, BTC was used as the substrate in the concentrations ranging from 0.0625 to 2 mM. For AChE, ATC was used as the substrate in the concentrations ranging from 0.0312 to 1 mM. Each compound concentration was measured in duplicates. The rate of enzyme activity (as ∆OD/hr kinetic data) was calculated and processed using the GraphPad Prism 7 analysis software. The inhibitory constant (Ki) values were determined from the dose-response curve and the half-maximal inhibitory concentration (IC50) values were calculated by plotting the percentage enzyme activity vs. the log of the Asinex compound concentrations and fitting the data using the nonlinear regression Enzyme Kinetics-Inhibition function.
(In general: Ellman's reagent forms a yellow product with free thiols.)

The next series concerns HEK 293 cells. Description: MTT cell viability assay. It is filed as cell-based. The note with it: for % of cell proliferation: overnight, control cells 100%, mean ± SD of 3 readings; for cellular toxicity in MTT assay (in words): 10 and 50 µM. The protocol: Finally, to assess the prospective of the identified compounds for further development into ChAT ligands, we assessed the compounds active against ChAT, AChE and BuChE, for their cellular toxicity on human embryonic kidney (HEK 293) cells using the cell viability 3-(4,5-dimethylthiazol-2-yl)-2,5-diphenyltetrazolium bromide (MTT) assay. All compounds were evaluated at 10 and 50 µM concentrations. The cell viability data is given in Table 4 (also represented as a bar chart in Fig. 9).
The in vitro cellular toxicity of the active compounds was evaluated using MTT assay. Briefly, Human embryonic kidney epithelial (HEK-293) cells cultured at 37 °C in a humidified environment with 5% CO2 in Dulbecco’s Modified Eagle’s medium (DMEM) in 96 well plate to obtain 70–80% confluency. Further, the cells were incubated overnight at 37 °C with 10 µM and 50 µM compounds in triplicate. Cells treated with 1% DMSO were used as controls. At the end of the treatment (12 h), 10 μL of 12 mM MTT dissolved in Phosphate buffer saline pH 7.4, was added to each well and incubated for an additional 2 h at 37 °C. The media was then removed from the plate and 100 µL of DMSO was added to dissolve the violet formazan crystals. Finally, the absorbance was measured at 540 nm with a reference wavelength of 630 nm on Tecan spectrophotometer with shaking before the reading. The percentage viability was calculated taking 1% DMSO control as 100 percent and presented as mean ± SD.
(Tetrazolium dyes change colour on reduction, which living cells bring about.)

Another series addresses T3, recombinant human AChE (Homo sapiens, UniProt P22303).
T3 construct: purchased Sigma C1682
Nature of the series: Modified Ellman's colorimetric assay for AChE and kinetic studies. It counts as biochemical. The note with it: 200 µM compound, compared to control, mean of three experiments in triplicate; for inhibition at 200 µM: read-out: AChE % IR (inhibition rate).
Excerpt: as §1, §2

A word on the inhibition: it is how much of the control response was suppressed.

T2 sequence (P06276 29-602): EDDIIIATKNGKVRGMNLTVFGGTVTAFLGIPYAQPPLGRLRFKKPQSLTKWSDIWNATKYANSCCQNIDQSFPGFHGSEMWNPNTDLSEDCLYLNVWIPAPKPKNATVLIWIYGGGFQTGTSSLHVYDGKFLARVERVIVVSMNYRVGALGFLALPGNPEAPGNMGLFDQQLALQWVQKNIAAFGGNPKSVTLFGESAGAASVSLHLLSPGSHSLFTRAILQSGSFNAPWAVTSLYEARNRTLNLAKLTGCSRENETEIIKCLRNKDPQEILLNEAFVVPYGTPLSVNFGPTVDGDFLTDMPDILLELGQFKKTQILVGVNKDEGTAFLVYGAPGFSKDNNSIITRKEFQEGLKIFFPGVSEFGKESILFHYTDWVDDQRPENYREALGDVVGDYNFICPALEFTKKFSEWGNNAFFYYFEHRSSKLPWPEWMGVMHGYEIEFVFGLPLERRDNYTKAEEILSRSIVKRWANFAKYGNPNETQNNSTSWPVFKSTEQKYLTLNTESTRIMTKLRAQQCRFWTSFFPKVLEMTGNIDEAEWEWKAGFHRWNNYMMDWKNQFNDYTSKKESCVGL
T3 sequence (P22303 32-614): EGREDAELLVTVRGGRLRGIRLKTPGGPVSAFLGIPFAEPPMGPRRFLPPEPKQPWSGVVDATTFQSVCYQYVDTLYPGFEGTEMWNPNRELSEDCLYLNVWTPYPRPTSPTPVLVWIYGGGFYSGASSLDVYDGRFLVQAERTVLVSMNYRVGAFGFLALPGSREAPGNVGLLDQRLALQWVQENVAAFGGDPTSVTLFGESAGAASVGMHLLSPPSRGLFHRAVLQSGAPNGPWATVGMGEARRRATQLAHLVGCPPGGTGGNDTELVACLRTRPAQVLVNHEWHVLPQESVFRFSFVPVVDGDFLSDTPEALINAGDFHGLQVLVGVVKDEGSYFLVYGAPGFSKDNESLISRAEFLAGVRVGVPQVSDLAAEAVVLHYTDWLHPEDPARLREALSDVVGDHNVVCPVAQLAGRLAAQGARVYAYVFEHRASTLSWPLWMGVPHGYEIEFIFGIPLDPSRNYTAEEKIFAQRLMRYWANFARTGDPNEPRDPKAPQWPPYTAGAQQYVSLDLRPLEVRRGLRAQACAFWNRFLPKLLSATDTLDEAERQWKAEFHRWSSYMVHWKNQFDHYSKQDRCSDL

As to `CC(C)NC(=O)C1CCN(C(=O)c2csc(Nc3cccc4ccccc34)n2)CC1` [Compound B4], the “Vmax of rChAT” value at human rChAT (inhibitor 2.0 µM) was 226 ± 20.9 µM/min; at human rChAT (inhibitor 10.0 µM) it was 150.9 ± 13.5 µM/min; at human rChAT (inhibitor 50.0 µM) it was 92.1 ± 19.4 µM/min; on human rChAT (inhibitor 250.0 µM) it was 45.5 ± 8.5 µM/min. Besides, the “BuChE % IR (inhibition rate)” value on plasma BuChE came out at 22.1%. For the same compound, the results for the inhibition at 200 µM at plasma BuChE and on recombinant human AChE were 22% and 0%, respectively. In addition, the “% of cell proliferation” value in the series on HEK 293 cells (10 µM) turned out to be 106.4 ± 5.8%; in the series on HEK 293 cells (50 µM) it was 74.2 ± 3.9%. Besides, the “cellular toxicity in MTT assay (in words)” value with HEK 293 cells is on record as “lower cellular toxicity”.
In the case of `CC(C)c1ccc(C(=O)CSc2n[nH]c(-c3ccco3)n2)cc1` [Compound E1], the “Vmax of rChAT” value at human rChAT (inhibitor 2.0 µM) is on record as 265.1 ± 11.7 µM/min; on human rChAT (inhibitor 10.0 µM), 243.8 ± 22.0 µM/min; at human rChAT (inhibitor 50.0 µM) it was 167.8 ± 10.4 µM/min; on human rChAT (inhibitor 250.0 µM), 160.3 ± 16.8 µM/min. On plasma BuChE, the “BuChE % IR (inhibition rate)” value came out at 17.2%. In addition, the inhibition at 200 µM on plasma BuChE was determined as 17%; at recombinant human AChE, 12%. The “% of cell proliferation” value in the series on HEK 293 cells (10 µM) turned out to be 101.9 ± 0.6%; with HEK 293 cells (50 µM) it was 75.4 ± 4.9%. Further, the “cellular toxicity in MTT assay (in words)” value in the series with HEK 293 cells is “lower cellular toxicity”. On recombinant human AChE (200 µM), the “AChE % IR (inhibition rate)” value is reported as 12.4%.
